Assay results as given in patent US9765105B2, “Macrolide compound” (Pulike Biological Engineering, Inc., priority 2013, dated 2017).

Legend:
Assay in all cases: in vitro susceptibility, MIC by mini broth dilution
Format in all cases: cell-based
[1] = tested on: Actinobacillus pleuropneumoniae CVCC262; settings: strain CVCC262
Procedure, shortened: (§1)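 MICs determined by mini broth dilution following NCCLS standards, using two-fold serial dilutions of compound in DMSO across 11 gradients, in duplicate rows. Strains were revived and subcultured at 35 °C for 20 h. Bacterial suspension was diluted 1:200 in liquid medium.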

Haemophilus parasuis = tested on: Haemophilus parasuis
Procedure, shortened: as §1

[2] = tested on: Pasteurella multocida CVCC399; settings: strain CVCC399
Procedure, shortened: as §1

[3] = tested on: Streptococcus equines CVCC556; settings: strain CVCC556
Procedure, shortened: as §1

[4] = tested on: Staphylococcus aureus CVCC26003; settings: strain CVCC26003
Procedure, shortened: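 MICs were determined by mini broth dilution under NCCLS standards in CAMHB, using revived S. aureus CVCC26003 subcultured 20 h at 35° C. Compounds were two-fold serially diluted in DMSO across 11 wells, with duplicate rows. Bacterial suspension was diluted 1:200 in medium before inoculation.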

Structure (SMILES) | MIC values, Actinobacillus pleuropneumoniae CVCC262 [1] | MIC values, Haemophilus parasuis (Haemophilus parasuis) | MIC values, Pasteurella multocida CVCC399 [2] | MIC values, Streptococcus equines CVCC556 [3] | MIC values, Staphylococcus aureus CVCC26003 [4]
CC[C@H]1OC(=O)[C@H](C)[C@@H](O[C@H]2C[C@@](C)(OC)[C@](O)(Cn3cccc3)[C@H](C)O2)[C@H](C)[C@@H](O[C@@H]2O[C@H](C)C[C@H](N(C)C)[C@H]2O)[C@](C)(O)C[C@@H](C)NC[C@H](C)[C@@H](O)[C@]1(C)O [syzx-7, (2R,3S,4R,5S,8R,10R,11R,12S,13S,14R)-13-[(2,6-dideoxy-3-C-methyl-3-O-methyl-4-C-[(pyrryl)methyl]-α-L-ribopyranosyl)oxy]-2-ethyl-3,4,10-trihydroxy-3,5,8,10,12,14-hexamethyl-11-[[3,4,6-trideoxy-3-(dimethylamino)-β-D-xylo-hexopyranosy]oxy]-1-oxa-7-azacyclopentadecan-15-one] | 2 ug/mi | ≦0.25 ug/mi | 0.25 ug/mi | ≦0.25 ug/mi | ≦0.25 ug/mi
CCC(NC[C@]1(O)[C@H](C)O[C@@H](O[C@H]2[C@H](C)[C@@H](O[C@@H]3O[C@H](C)C[C@H](N(C)C)[C@H]3O)[C@](C)(O)C[C@@H](C)NC[C@H](C)[C@@H](O)[C@](C)(O)[C@@H](CC)OC(=O)[C@@H]2C)C[C@@]1(C)OC)C(=O)O (stereo partly drawn) [syzx-41, (2R,3S,4R,5S,8R,10R,11R,12S,13S,14R)-13-[(2,6-dideoxy-3-C-methyl-3-O-methyl-4-C-[[butyrate-2-amino]-methyl]-α-L-ribopyranosyl)oxy]-2-ethyl-3,4,10-trihydroxy-3,5,8,10,12,14-hexamethyl-11-[[3,4,6-trideoxy-3-(dimethylamino)-β-D-xylo-hexopyranosy]oxy]-1-oxa-7-azacyclopentadecan-15-one] | 1 ug/mi | 1 ug/mi | 4 ug/mi | 0.5 ug/mi | 2 ug/mi
CCCN1C[C@H](C)[C@@H](O)[C@](C)(O)[C@@H](CC)OC(=O)[C@H](C)[C@@H](O[C@H]2C[C@@](C)(OC)[C@](O)(CNCCOC)[C@H](C)O2)[C@H](C)[C@@H](O[C@@H]2O[C@H](C)C[C@H](N(C)C)[C@H]2O)[C@](C)(O)C[C@H]1C [syzx-158] | 4 ug/mi | 4 ug/mi | 2 ug/mi | 0.25 ug/mi | 2 ug/mi
C=CCN(CC=C)C[C@]1(O)[C@H](C)O[C@@H](O[C@H]2[C@H](C)[C@@H](O[C@@H]3O[C@H](C)C[C@H](N(C)C)[C@H]3O)[C@](C)(O)C[C@@H](C)N(CCC)C[C@H](C)[C@@H](O)[C@](C)(O)[C@@H](CC)OC(=O)[C@@H]2C)C[C@@]1(C)OC [syzx-214] | 2 ug/mi | 2 ug/mi | 8 ug/mi | 0.25 ug/mi | 4 ug/mi
CCCN1C[C@H](C)[C@@H](O)[C@](C)(O)[C@@H](CC)OC(=O)[C@H](C)[C@@H](O[C@H]2C[C@@](C)(OC)[C@](O)(CNc3nc(OC)cc(OC)n3)[C@H](C)O2)[C@H](C)[C@@H](O[C@@H]2O[C@H](C)C[C@H](N(C)C)[C@H]2O)[C@](C)(O)C[C@H]1C [syzx-222] | 2 ug/mi | 2 ug/mi | 8 ug/mi | 0.25 ug/mi | 4 ug/mi
CC[C@H]1OC(=O)[C@H](C)[C@@H](O[C@H]2C[C@@](C)(OC)[C@](O)(CNCc3ccc(Cl)cc3)[C@H](C)O2)[C@H](C)[C@@H](O[C@@H]2O[C@H](C)C[C@H](N(C)C)[C@H]2O)[C@](C)(O)C[C@@H](C)NC[C@H](C)[C@@H](O)[C@]1(C)O [syzx-20, (2R,3S,4R,5S,8R,10R,11R,12S,13S,14R)-13-[(2,6-dideoxy-3-C-methyl-3-O-methyl-4-C-[(4-chlorolbenzylamino)methyl]-α-L-ribopyranosyl)oxy]-2-ethyl-3,4,10-trihydroxy-3,5,8,10,12,14-hexamethyl-11-[[3,4,6-trideoxy-3-(dimethylamino)-β-D-xylo-hexopyranosy]oxy]-1-oxa-7-azacyclopentadecan-15-one] | 2 ug/mi | ≦0.25 ug/mi | 0.25 ug/mi | ≦0.25 ug/mi | ≦0.25 ug/mi
CCCCCCNC[C@]1(O)[C@H](C)O[C@@H](O[C@H]2[C@H](C)[C@@H](O[C@@H]3O[C@H](C)C[C@H](N(C)C)[C@H]3O)[C@](C)(O)C[C@@H](C)N(CCC)C[C@H](C)[C@@H](O)[C@](C)(O)[C@@H](CC)OC(=O)[C@@H]2C)C[C@@]1(C)OC [syzx-115] | 0.25 ug/mi | 0.25 ug/mi | 0.5 ug/mi | 0.25 ug/mi | 0.25 ug/mi
CC[C@H]1OC(=O)[C@H](C)[C@@H](O[C@H]2C[C@@](C)(OC)[C@](O)(CNCCc3ccncc3)[C@H](C)O2)[C@H](C)[C@@H](O[C@@H]2O[C@H](C)C[C@H](N(C)C)[C@H]2O)[C@](C)(O)C[C@@H](C)NC[C@H](C)[C@@H](O)[C@]1(C)O [syzx-91, (2R,3S,4R,5S,8R,10R,11R,12S,13S,14R)-13-[(2,6-dideoxy-3-C-methyl-3-O-methyl-4-C-[(2-pyridin-4-yl-ethylamino)-methyl]-α-L-ribopyranosyl)oxy]-2-ethyl-3,4,10-trihydroxy-3,5,8,10,12,14-hexamethyl-11-[[3,4,6-trideoxy-3-(dimethylamino)-β-D-xylo-hexopyranosy]oxy]-1-oxa-7-azacyclopentadecan-15-one] | 2 ug/mi | 2 ug/mi | 2 ug/mi | 1 ug/mi | 4 ug/mi
CCCN1C[C@H](C)[C@@H](O)[C@](C)(O)[C@@H](CC)OC(=O)[C@H](C)[C@@H](O[C@H]2C[C@@](C)(OC)[C@](O)(CN3CCNCC3)[C@H](C)O2)[C@H](C)[C@@H](O[C@@H]2O[C@H](C)C[C@H](N(C)C)[C@H]2O)[C@](C)(O)C[C@H]1C [syzx-136] | 0.5 ug/mi | 0.25 ug/mi | 0.5 ug/mi | 0.25 ug/mi | 0.25 ug/mi
CCCN1C[C@H](C)[C@@H](O)[C@](C)(O)[C@@H](CC)OC(=O)[C@H](C)[C@@H](O[C@H]2C[C@@](C)(OC)[C@](O)(CNC(C)CCc3ccccc3)[C@H](C)O2)[C@H](C)[C@@H](O[C@@H]2O[C@H](C)C[C@H](N(C)C)[C@H]2O)[C@](C)(O)C[C@H]1C (some centres unmarked) [syzx-134] | 0.25 ug/mi | 0.25 ug/mi | 0.5 ug/mi | 0.25 ug/mi | 0.25 ug/mi
CCCCN(C)C[C@]1(O)[C@H](C)O[C@@H](O[C@H]2[C@H](C)[C@@H](O[C@@H]3O[C@H](C)C[C@H](N(C)C)[C@H]3O)[C@](C)(O)C[C@@H](C)NC[C@H](C)[C@@H](O)[C@](C)(O)[C@@H](CC)OC(=O)[C@@H]2C)C[C@@]1(C)OC [syzx-98, (2R,3S,4R,5S,8R,10R,11R,12S,13S,14R)-13-[(2,6-dideoxy-3-C-methyl-3-O-methyl-4-C-[(N-methyl-butyl-amino)-methyl]-α-L-ribopyranosyl)oxy]-2-ethyl-3,4,10-trihydroxy-3,5,8,10,12,14-hexamethyl-11-[[3,4,6-trideoxy-3-(dimethylamino)-β-D-xylo-hexopyranosy]oxy]-1-oxa-7-azacyclopentadecan-15-one] | 0.5 ug/mi | 0.5 ug/mi | 2 ug/mi | 0.25 ug/mi | 1 ug/mi
CCCN1C[C@H](C)[C@@H](O)[C@](C)(O)[C@@H](CC)OC(=O)[C@H](C)[C@@H](O[C@H]2C[C@@](C)(OC)[C@](O)(CNc3cccnc3Cl)[C@H](C)O2)[C@H](C)[C@@H](O[C@@H]2O[C@H](C)C[C@H](N(C)C)[C@H]2O)[C@](C)(O)C[C@H]1C [syzx-218] | 4 ug/mi | 4 ug/mi | 8 ug/mi | 0.25 ug/mi | 2 ug/mi
CC[C@H]1OC(=O)[C@H](C)[C@@H](O[C@H]2C[C@@](C)(OC)[C@](O)(CNOCc3ccccc3)[C@H](C)O2)[C@H](C)[C@@H](O[C@@H]2O[C@H](C)C[C@H](N(C)C)[C@H]2O)[C@](C)(O)C[C@@H](C)NC[C@H](C)[C@@H](O)[C@]1(C)O [syzx-82, (2R,3S,4R,5S,8R,10R,11R,12S,13S,14R)-13-[(2,6-dideoxy-3-C-methyl-3-O-methyl-4-C-[(benzyloxy-amino)-methyl]-α-L-ribopyranosyl)oxy]-2-ethyl-3,4,10-trihydroxy-3,5,8,10,12,14-hexamethyl-11-[[3,4,6-trideoxy-3-(dimethylamino)-β-D-xylo-hexopyranosy]oxy]-1-oxa-7-azacyclopentadecan-15-one] | 16 ug/mi | ≦0.25 ug/mi | 1 ug/mi | ≦0.25 ug/mi | 0.5 ug/mi
